Two compounds from patent US20220175859A1, “Tetraselmis Extract” (SYMRISE AG, priority 2018, published 2022) can be followed below.

Common to all, as to assay type: cell-based
Series [1] concerns human sebaceous glands. Nature of the series: Viability test (resazurin) of micro-dissected human sebaceous glands. How it is done:
To better understand the response to the extract, a viability test was performed in parallel at day 1 and day 6 of organ culture. Resazurin was added to the wells (1:11) and let incubate for 2 hours. At the end of the incubation an aliquot of the medium was read with a fluorometer (excitation: 560 nm, emission: 590 nm). The medium was then replaced with normal medium for 2 hours in order to eliminate residual resazurin. After this the medium was replaced again with medium containing the test samples. The viability in each well was measured as the difference in percentage between day 6 and day 1.
The same experimental set-up as described in Example 3 was used to evaluate the combination of Tetraselmis suecica extract and niacinamide for synergistic activity.
In general terms: Alamar Blue is a resazurin reagent that responds to reducing activity.

Series [2] relates to human sebaceous glands. Nature of the series: Total lipid content of micro-dissected ex vivo human sebaceous glands (organ culture). The following applies: extract 0.3 ppm, Capsaicin 5 μM (=1.5 ppm), lipids normalized to proteins. As to the method: Organ culture of human sebaceous glands micro-dissected from human skin explants was performed to evaluate the modulatory activity of Tetraselmis suecica extract prepared according to the description given in Example 1 on the sebum level. The extract is employed in the dried form. After removal of the epidermis of the full thickness skin sample, the sebaceous glands were carefully removed using micro-scissors and scalpel. The micro-dissected sebaceous glands were then pooled in groups of 8 and cultured up to day 6 in a 24 well plate immersed in 500 μl of modified Williams' E medium. After 24 hours of acclimation the culture medium was changed and substituted with the medium containing the extract to be tested. The medium was renewed at day 3 and 5 of culture. At day 6 the glands were collected and used for the quantification of lipids and proteins. […] To do so, each sebaceous glands group was homogenized in 100 μl of isopropyl alcohol to extract lipids and let the proteins undissolved. After centrifugation the supernatant containing the extracted sebum was collected and analyzed. The remaining pellet was dried using a vacuum dry evaporator and then minced in presence of 50 μl of protein lysis buffer. After an appropriate incubation time, this extractive mixture was centrifuged, and the supernatant was collected and analyzed. The lipids dissolved in isopropyl alcohol and the proteins dissolved in the lysis buffer were quantified by infrared spectroscopy using a Direct Detect IR Spectrometer (Millipore). The total lipid amount was obtained by normalizing the quantified lipids upon the quantified proteins (i.e. mg of lipids/mg of proteins). The amounts of normalized lipids, i.e. the sebum produced by each group of sebaceous glands, obtained from the treated groups was compared to that of the untreated control group and the modulatory activity was calculated in percentage. […] For statistical analysis, differences among groups were evaluated by one-way anova with permutation test followed by Dunnett's permutation test. […]

Series [3] deals with human sebaceous glands. Nature of the series: Synergistic effect of Tetraselmis suecica extract and niacinamide on total lipid content of ex vivo human sebaceous glands (Kull's equation). The following applies: Donor 1 (Example 4); 0.3 ppm extract, 100 ppm niacinamide, or 0.15 ppm extract + 50 ppm niacinamide.
From the text: Kull's equation for calculation of the synergism index SI was used:
A=lipid reduction by Tetraselmis suecica extract at concentration x B=lipid reduction by niacinamide at concentration y C=lipid reduction by the combination of Tetraselmis suecica extract at concentration x/2 and niacinamide at concentration y/2 D=Factor for Tetraselmis suecica extract=>0.5 (due to half concentration tested in the combination) E=Factor for niacinamide=>0.5 (due to half concentration tested in the combination) A SI=1 is obtained for additive activity of the two combined components, whereas a SI<1 proves antagonistic activity (observed efficacy is lower than additive) and SI>1 proves synergistic activity (observed efficacy is higher than additive).

The structures appear in SMILES notation.

Turning to `COc1cc(CNC(=O)CCCC/C=C/C(C)C)ccc1O` [Capsaicin], the Viability came out at 92% in the series with human sebaceous glands [1] (Donor 1, day 6 versus day 1, extract 0.3 ppm, Capsaicin 5 μM (1.5 ppm), untreated 93); 99% in the series on human sebaceous glands [1] (Donor 2, day 6 versus day 1, extract 0.3 ppm, Capsaicin 5 μM (1.5 ppm), untreated 100); 85% with human sebaceous glands [1] (Donor 3, day 6 versus day 1, extract 0.3 ppm, Capsaicin 5 μM (1.5 ppm), untreated 81). Also, the figures for the “Reduction of lipids at day 6 versus untreated” value with human sebaceous glands [2] (Donor 1), in the series with human sebaceous glands [2] (Donor 2) and in the series with human sebaceous glands [2] (Donor 3) were 11%, 28% and 14%, respectively.

Regarding `NC(=O)c1cccnc1` [niacinamide, Niacinamide], the Viability in the series with human sebaceous glands [1] (Donor 1 (Example 4), 0.3 ppm extract, 100 ppm niacinamide, or 0.15 ppm extract + 50 ppm niacinamide, untreated 81) amounted to 78%. For the same compound, the “Reduction of lipids at day 6 versus untreated” value in the series on human sebaceous glands [3] was 6%.
